Results: patent US8461083B2, “Herbicidal compounds” (Syngenta Limited, priority 2008, dated 2013)

Legend:
Format in all cases: in vivo
[1] = test system: Alopecurus myosuroides (ALOMY); assay: Post-emergence herbicidal glasshouse test; settings: post-emergence (sprayed after 8 days cultivation), evaluated after 13 days, 100=total damage to plant, 0=no damage to plant; for pest or weed control at 1000 g/ha: Alopecurus myosuroides, 312 h, read-out: POST Application ALOMY, damage to plant; for POST Application ALOMY, damage to plant: 1000 g/ha
Method in brief: (§1)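 Seeds were sown in standard soil in pots and sprayed 1 day after sowing (pre-emergence) or after 8 days' cultivation (post-emergence). Compounds were applied at 1000 g/ha in acetone/water (50:50) with 0.5% Tween 20. Plants were kept at 24/16 °C day/night, 14 h light, 65% humidity, and damage was scored after 13 days (0 = none, 100 = total).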

[2] = test system: Amaranthus retoflexus (AMARE); assay: Post-emergence herbicidal glasshouse test; settings: post-emergence (sprayed after 8 days cultivation), evaluated after 13 days, 100=total damage to plant, 0=no damage to plant; for pest or weed control at 1000 g/ha: Amaranthus retroflexus, 312 h, read-out: POST Application AMARE, damage to plant; for POST Application AMARE, damage to plant: 1000 g/ha
Method in brief: as §1

[3] = test system: Echinochloa crus-galli (ECHCG); assay: Post-emergence herbicidal glasshouse test; settings: post-emergence (sprayed after 8 days cultivation), evaluated after 13 days, 100=total damage to plant, 0=no damage to plant; for pest or weed control at 1000 g/ha: Echinochloa crus-galli, 312 h, read-out: POST Application ECHCG, damage to plant; for POST Application ECHCG, damage to plant: 1000 g/ha
Method in brief: (§2)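 Damage was rated visually 13 days after treatment on a 0–100 scale, 100 meaning total damage. Pot-grown plants received a 1000 g/ha spray in acetone/water (50:50) containing 0.5% Tween 20, either one day after sowing or after eight days of growth.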

Setaria faberi (SETFA) [4] = assay: Post-emergence herbicidal glasshouse test; settings: post-emergence (sprayed after 8 days cultivation), evaluated after 13 days, 100=total damage to plant, 0=no damage to plant; for pest or weed control at 1000 g/ha: Setaria faberi, 312 h, read-out: POST Application SETFA, damage to plant; for POST Application SETFA, damage to plant: 1000 g/ha
Method in brief: as §1

Solanum nigrum (SOLNI) [5] = assay: Post-emergence herbicidal glasshouse test; settings: post-emergence (sprayed after 8 days cultivation), evaluated after 13 days, 100=total damage to plant, 0=no damage to plant; for pest or weed control at 1000 g/ha: Solanum nigrum, 312 h, read-out: POST Application SOLNI, damage to plant; for POST Application SOLNI, damage to plant: 1000 g/ha
Method in brief: as §1

[6] = test system: Alopecurus myosuroides (ALOMY); assay: Pre-emergence herbicidal glasshouse test; settings: pre-emergence (sprayed after one day cultivation), evaluated after 13 days, 100=total damage to plant, 0=no damage to plant; for pest or weed control at 1000 g/ha: Alopecurus myosuroides, 312 h, read-out: PRE Application ALOMY, damage to plant; for PRE Application ALOMY, damage to plant: 1000 g/ha
Method in brief: as §1

[7] = test system: Amaranthus retoflexus (AMARE); assay: Pre-emergence herbicidal glasshouse test; settings: pre-emergence (sprayed after one day cultivation), evaluated after 13 days, 100=total damage to plant, 0=no damage to plant; for pest or weed control at 1000 g/ha: Amaranthus retroflexus, 312 h, read-out: PRE Application AMARE, damage to plant; for PRE Application AMARE, damage to plant: 1000 g/ha
Method in brief: as §1

[8] = test system: Echinochloa crus-galli (ECHCG); assay: Pre-emergence herbicidal glasshouse test; settings: pre-emergence (sprayed after one day cultivation), evaluated after 13 days, 100=total damage to plant, 0=no damage to plant; for pest or weed control at 1000 g/ha: Echinochloa crus-galli, 312 h, read-out: PRE Application ECHCG, damage to plant; for PRE Application ECHCG, damage to plant: 1000 g/ha
Method in brief: as §2

Setaria faberi (SETFA) [9] = assay: Pre-emergence herbicidal glasshouse test; settings: pre-emergence (sprayed after one day cultivation), evaluated after 13 days, 100=total damage to plant, 0=no damage to plant; for pest or weed control at 1000 g/ha: Setaria faberi, 312 h, read-out: PRE Application SETFA, damage to plant; for PRE Application SETFA, damage to plant: 1000 g/ha
Method in brief: as §1

Solanum nigrum (SOLNI) [10] = assay: Pre-emergence herbicidal glasshouse test; settings: pre-emergence (sprayed after one day cultivation), evaluated after 13 days, 100=total damage to plant, 0=no damage to plant; for pest or weed control at 1000 g/ha: Solanum nigrum, 312 h, read-out: PRE Application SOLNI, damage to plant; for PRE Application SOLNI, damage to plant: 1000 g/ha
Method in brief: as §1

| SMILES | pest or weed control at 1000 g/ha [1] [%] | pest or weed control at 1000 g/ha [2] [%] | pest or weed control at 1000 g/ha [3] [%] | pest or weed control at 1000 g/ha (Setaria faberi (SETFA) [4]) [%] | pest or weed control at 1000 g/ha (Solanum nigrum (SOLNI) [5]) [%] | pest or weed control at 1000 g/ha [6] [%] | pest or weed control at 1000 g/ha [7] [%] | pest or weed control at 1000 g/ha [8] [%] | pest or weed control at 1000 g/ha (Setaria faberi (SETFA) [9]) [%] | pest or weed control at 1000 g/ha (Solanum nigrum (SOLNI) [10]) [%] | POST Application ALOMY, damage to plant [1] | POST Application AMARE, damage to plant [2] | POST Application ECHCG, damage to plant [3] | POST Application SETFA, damage to plant (Setaria faberi (SETFA) [4]) | POST Application SOLNI, damage to plant (Solanum nigrum (SOLNI) [5]) | PRE Application ALOMY, damage to plant [6] | PRE Application AMARE, damage to plant [7] | PRE Application ECHCG, damage to plant [8] | PRE Application SETFA, damage to plant (Setaria faberi (SETFA) [9]) | PRE Application SOLNI, damage to plant (Solanum nigrum (SOLNI) [10]) |
| --- | --- | --- | --- | --- | --- | --- | --- | --- | --- | --- | --- | --- | --- | --- | --- | --- | --- | --- | --- | --- |
| CC(C)n1c(=O)ccc2cc(C(=O)C3C(=O)CCCC3=O)c(C(F)(F)F)nc21 [Compound 2.10, 2-{8-isopropyl-7-oxo-7,8-dihydro-2-trifluoromethyl-[1,8]-naphthyridine-3-carbony}-cyclohexane-1,3-dione] | 80 | 100 | 90 | 90 | 100 | 50 | 80 | 90 | 80 | 90 |  |  |  |  |  |  |  |  |  |  |
| O=C1CCCC(=O)C1C(=O)c1cc2cc(F)c(CCF)nc2nc1C(F)(F)F [Compound 1.69] |  |  |  |  |  |  |  |  |  |  | 60 | 90 | 80 | 80 | 80 | 60 | 20 | 100 | 90 | 100 |
| O=C1CCCC(=O)C1C(=O)c1cc2ccc(O)nc2nc1C(F)(F)F [Compound 1.21, 2-(7-hydroxy-2-trifluoromethyl-[1,8]-naphthyridine-3-carbony)-cyclohexane-1,3-dione] | 100 | 100 | 100 | 100 | 100 | 80 | 100 | 100 | 100 | 100 |  |  |  |  |  |  |  |  |  |  |
| CC(C)(F)c1ccc2cc(C(=O)C3C(=O)CCCC3=O)c(C(F)(F)F)nc2n1 [Compound 1.37] |  |  |  |  |  |  |  |  |  |  | 80 | 100 | 90 | 90 | 70 | 80 | 100 | 100 | 100 | 100 |
| CCCn1c(=O)ccc2cc(C(=O)C3C(=O)CCCC3=O)c(C(F)(F)F)nc21 [Compound 2.13, 2-{8-n.-propyl-7-oxo-7,8-dihydro-2-trifluoromethyl-[1,8]-naphthyridine-3-carbony}-cyclohexane-1,3-dione] |  |  |  |  |  |  |  |  |  |  | 80 | 70 | 90 | 90 | 90 | 60 | 90 | 90 | 90 | 100 |
| O=C1CCCC(=O)C1C(=O)c1cc2ccc(=O)n(CC(F)F)c2nc1C(F)(F)F [Compound 2.4, 2-{8-(2,2-difluoroethyl)-7-oxo-7,8-dihydro-2-trifluoromethyl-[1,8]-naphthyridine-3-carbony}-cyclohexane-1,3-dione] |  |  |  |  |  |  |  |  |  |  | 60 | 60 | 70 | 80 | 90 | 40 | 90 | 90 | 70 | 90 |
| CCN(C)c1nc2nc(C(F)(F)F)c(C(=O)C3C(=O)CCCC3=O)cc2cc1F [Compound 1.81, 2-[6-fluoro-7-(N-methylethylamino)-2-trifluoromethyl-[1,8]-naphthyridine-3-carbony]-cyclohexane-1,3-dione] |  |  |  |  |  |  |  |  |  |  | 70 | 90 | 90 | 80 | 80 | 70 | 100 | 100 | 100 | 100 |
| O=C1CCCC(=O)C1C(=O)c1cc2cc(F)c(-c3ccsc3)nc2nc1C(F)(F)F [Compound 1.71] |  |  |  |  |  |  |  |  |  |  | 30 | 100 | 80 | 80 | 70 | 10 | 0 | 90 | 70 | 70 |
| O=C1CCCC(=O)C1C(=O)c1cc2cc(F)c(NC3CC3)nc2nc1C(F)(F)F [Compound 1.92, 2-[7-(cyclopropylamino)-6-fluoro-2-trifluoromethyl-[1,8]-naphthyridine-3-carbony]-cyclohexane-1,3-dione] |  |  |  |  |  |  |  |  |  |  | 80 | 100 | 80 | 80 | 80 | 60 | 100 | 100 | 100 | 100 |
| C#CCNc1nc2nc(C(F)(F)F)c(C(=O)C3C(=O)CCCC3=O)cc2cc1F [Compound 1.103] |  |  |  |  |  |  |  |  |  |  | 70 | 80 | 80 | 90 | 90 | 40 | 80 | 100 | 100 | 100 |
| CC(C)Cc1nc2nc(C(F)(F)F)c(C(=O)C3C(=O)CCCC3=O)cc2cc1F [Compound 1.70, 2-[6-fluoro-7-(2-methylpropyl)-2-trifluoromethyl-[1,8]-naphthyridine-3-carbony]-cyclohexane-1,3-dione] |  |  |  |  |  |  |  |  |  |  | 90 | 90 | 90 | 90 | 80 | 90 | 40 | 100 | 100 | 100 |
| O=C1CCCC(=O)C1C(=O)c1cc2ccc(OC3CCCC3)nc2nc1C(F)(F)F [Compound 1.16] |  |  |  |  |  |  |  |  |  |  | 70 | 70 | 70 | 90 | 90 | 60 | 80 | 90 | 90 | 90 |
| CCCOCCn1c(=O)ccc2cc(C(=O)C3C(=O)CCCC3=O)c(C(F)(F)F)nc21 [Compound 2.17] |  |  |  |  |  |  |  |  |  |  | 30 | 90 | 80 | 90 | 90 | 10 | 40 | 80 | 50 | 80 |
